Values of other authors in patent publication US20140120162A1, “Bioadhesive Drug Delivery Compositions” (PEROSPHERE INC., priority 2011, published 2014).
Read-outs that look alike come from different tables or passages of the source.

Columns and labels:
[1] = not given; remark: listed apart in the source
[2] = not given; remark: listed apart in the source

NCC1(CC(=O)O)CCCCC1 [Gabapentin]
bioavailability (gabapentin, at best, 900 mg dose given three times a day): ≤ 60% | metabolism in humans (humans): not appreciably metabolized

C=CC[C@@H]1/C=C(\C)C[C@H](C)C[C@H](OC)[C@H]2O[C@@](O)(C(=O)C(=O)N3CCCC[C@H]3C(=O)O[C@H](/C(C)=C/[C@@H]3CC[C@@H](O)[C@H](OC)C3)[C@H](C)[C@@H](O)CC1=O)[C@H](C)C[C@@H]2OC [Tacrolimus]
solubility in chloroform ([1]; chloroform): very soluble | solubility in ethanol / alcohol [1]: freely soluble | solubility in methanol [1]: very soluble | solubility in water [1]: practically insoluble | absolute bioavailability (tacrolimus, 5 mg dose taken twice a day, oral): approximately 17%

C#C[C@]1(O)CC[C@H]2[C@@H]3CCC4=Cc5oncc5C[C@]4(C)[C@H]3CC[C@@]21C [Danazol, 17a-Pregna-2,4-dien-20-yno[2,3-d]-isoxazol-17-ol]
half-life (danazol administered orally): 4 to 5 h | time of peak concentrations (danazol administered orally): ≤ 2 h | increase in plasma concentration on doubling the dose (danazol, doubling the dose): 30-40%

NC(=O)N1c2ccccc2C=Cc2ccccc21 [Carbamazepine, 5H-dibenz[b,f]azepine-5-carboxamide]
solubility in acetone ([1]; acetone): soluble | solubility in ethanol / alcohol [1]: soluble | solubility in water [1]: practically insoluble

CC(=O)O[C@H]1C(=O)[C@@]2(C)[C@H]([C@H](OC(=O)c3ccccc3)[C@]3(O)C[C@H](OC(=O)[C@H](O)[C@@H](NC(=O)c4ccccc4)c4ccccc4)C(C)=C1C3(C)C)[C@]1(OC(C)=O)CO[C@@H]1C[C@@H]2O [Paclitaxel]
solubility in water [1]: insoluble

1-[(4R,5S)-5-[(2-aminoethyl)amino]-N^2-(10,12-dimethyl-1-oxotetradecyl)-4-hydroxy-L-ornithine]-5-[(3IRI)-3-hydroxy-L-ornithine]pneumocandin B0 diacetate (salt) [Caspofungin acetate]
solubility in ethanol / alcohol [1]: slightly soluble | solubility in methanol [1]: freely soluble | solubility in water [1]: freely soluble | pH of a saturated aqueous solution [2]: approximately 6.6 | bioavailability (caspofungin): 0%
